Source: patent US11767520B2, “Compositions and methods for treating lung inflammation” (aTyr Pharma, Inc., priority 2017, dated 2023)

Key:
[1] = system: bleomycin-induced lung fibrosis; assay: Survival, BLM-induced lung fibrosis mouse model (Example 1, Table E2); type: in vivo, mouse (male C57Bl/6J); conditions: for Survival (number of animals surviving to study day): Ninte. 60 mg/kg PO, BLM mice, 12 at start
Protocol: (§1) Lung inflammation and fibrosis were induced in male C57Bl/6J mice by oropharyngeal administration of BLM. After the habituation phase mice were randomized based on body weight over the different groups. Under isoflurane anesthesia, 50 μl PBS or BLM was dripped onto the vocal cords facilitating aspiration. Mice were sacrificed at day 21 using a terminal bleed under isoflurane anesthesia.
(§2) Daily oral treatments commenced on Day 0, while daily IV treatments commenced on Day 8. Dosing was planned to continue until the day of termination (Day 21), however, due to high mortality in IV treated groups (see results), IV dosing was skipped on Day 19 and Day 20. […] Subsequently, the mice received 8% D20 (Kinemed, Emeryville) drinking water until sacrifice to maintain labeling of newly formed collagen. Body weight was monitored three times a week.
The study commenced with 7 animals in the non-diseased control group and 12 animals in the BLM-induced groups. Survival is show in Table E2 below.

[2] = Body weight, BLM mouse model (Example 1); type: in vivo, mouse (male C57Bl/6J); conditions: BLM-induced mice; daily PO from Day 0: dexamethasone 0.25 mg/kg, Nintedanib 60 mg/kg
Protocol: as §1, §2

[3] = system: bleomycin-induced lung inflammation and fibrosis; assay: Cell counts in BAL fluid, BLM mouse model (Example 1); type: in vivo, mouse (male C57Bl/6J); conditions: BLM-induced mice; daily PO from Day 0: dexamethasone 0.25 mg/kg, Nintedanib 60 mg/kg; vs PO vehicle
Protocol: as §1, §2
The lungs were flushed two times with 750 μl PBS, combined into one bronchoalveolar lavage (BAL) sample, and stored on ice until centrifugation. The supernatant was collected and stored frozen (<−70° C.). The erythrocytes in the cell pellet were lysed and the remaining cells were resuspended in 100 μl PBS. 20 μl was diluted in trypan blue solution and used for counting the live cells using a hemocytometer.

[4] = system: bleomycin-induced lung fibrosis; assay: Histological fibrosis (modified Ashcroft) score, BLM mouse model (Example 1); type: in vivo, mouse (male C57Bl/6J); conditions: BLM-induced mice
Protocol: The five lung lobes were collected and isolated. Wet weight of the medial and accessory lung lobes was recorded. The lobes were then snap frozen and stored at <−70° C. until use for hydroxyproline analysis. The left lung lobe was inflated and fixed for 48 hours in 4% formaldehyde and embedded in paraffin for histological analysis. The cranial lung lobe was snap frozen and stored at −80° C. until shipment to Kinemed for the determination of new collagen formation.
Sections of the left lung lobe were stained using Masson's Trichrome and were scored in a blinded fashion using a modified Ashcroft score (Hubner et al., BioTechniques. 44:507-511, 514-507, 2008). Hydroxyproline content was determined in the medial and accessory lung lobes using acid hydrolysis followed by a chromogenic assay (QuickZyme Biosciences, Leiden, Netherlands). Newly formed collagen was measured in the cranial lung lobe by Kinemed Inc., Emeryville, USA using the fraction of body water enriched in 2H for normalization.

[5] = system: bleomycin-induced respiratory impairment; assay: Respiratory measurements by whole body plethysmography, BLM rat model (Example 2, Table E4); type: in vivo, rat (male Sprague Dawley); conditions: for Expiratory Time / Inspiratory Time / Peak Expiratory Flow / Peak Inspiratory Flow / Tidal Volume / Respiratory Rate / Respiratory Minute Volume: Ninte. 60 mg/kg PO daily from Day 1, mean; for Respiratory Rate: in breaths/min (unit assumed); for Respiratory Minute Volume: in mL/min (unit assumed)
Protocol: PBS or BLM was administered under isoflurane anesthesia.
In-life, body weights were measured and clinical observations were conducted daily. On Day 8 and Day 15, animals were removed from their home cages and placed individually into whole body plethysmography chambers. After a 20-minute acclimatization phase, respiratory parameters were recorded for 10 minutes.

[6] = system: bleomycin-induced lung inflammation; assay: Histological inflammatory cell infiltrate and type II pneumocyte hyperplasia scores, BLM rat model (Example 2); type: in vivo, rat (male Sprague Dawley); conditions: BLM-induced rats, Day 22; Nintedanib PO; Test Article = HRS^FC1 1 mg/kg on Days 2, 9 and 16; FIG. 5
Protocol: The five lung lobes were collected and weighed. The right lung lobes were inflated and fixed in 10% neutral buffered formalin and embedded in paraffin for histological analysis. An approximately 50 mg piece of the left lung lobe was snap frozen and stored at −80° C. for potential RNA analysis. The remainder of the lobe was also snap frozen until analyzed for collagen content.
Sections for histology were stained using picrosirius red and were scored in a blinded fashion (1 score for each of the 4 lobes) by a veterinary pathologist using a modified Ashcroft score (Hubner et al., 2008). Hydroxyproline content was determined in the left lung lobe using a mass spectrometry method.
Slides were read by a veterinary pathologist and each of the 4 lobes evaluated was assigned 4 scores [Ashcroft for fibrosis (scores range from 0 to 8), perivascular/peribronchiolar inflammatory cell infiltrate (scores range from 0 to 5), interstitial/alveolar inflammatory cell infiltrate (scores range from 0 to 5), type II pneumocyte hyperplasia (scores range from 0 to 5)].

[7] = system: bleomycin-induced lung fibrosis; assay: Histological fibrosis (modified Ashcroft) score, BLM rat model, combination study (Example 3); type: in vivo, rat (male Sprague Dawley); conditions: BLM-induced rats; alone or in combination, vs PO plus IV vehicles; data not shown
Protocol: (§3) The five lung lobes were collected and weighed. On Day 17, the right accessory lobe was retained and desiccated to obtain dry weight. The remaining right lung lobes were inflated and fixed in 10% neutral buffered formalin and embedded in paraffin for histological analysis. An approximately 50 mg piece of the left lung lobe was snap frozen and stored at −80° C. for potential RNA analysis. The remainder of the lobe was also snap frozen until analyzed for collagen content.
(§4) Sections for histology were stained using picrosirius red and were scored in a blinded fashion (1 score for each of the 3-4 lobes) by a veterinary pathologist using a modified Ashcroft score (Hubner et al., 2008). Hydroxyproline content was determined in the left lung lobe using a mass spectrometry method.
(§5) Slides were read by a veterinary pathologist and each of the 3 lobes evaluated was assigned 4 score types [Ashcroft for fibrosis (scores range from 0 to 8), perivascular/peribronchiolar inflammatory cell infiltrate (scores range from 0 to 5), interstitial/alveolar inflammatory cell infiltrate (scores range from 0 to 5), type II pneumocyte hyperplasia (scores range from 0 to 5)].

[8] = system: bleomycin-induced lung inflammation; assay: Interstitial/alveolar inflammatory cell infiltrate score, BLM rat model, combination study (Example 3); type: in vivo, rat (male Sprague Dawley); conditions: BLM-induced rats; alone or in combination, vs PO plus IV vehicles; data not shown
Protocol: as §3, §4, §5

COC(=O)c1ccc2c(c1)NC(=O)/C2=C(\Nc1ccc(N(C)C(=O)CN2CCN(C)CC2)cc1)c1ccccc1 [Nintedanib, nintedanib]
Survival rate ([1]; BLM-induced mice to Day 21, daily PO from Day 0: dexamethasone 0.25 mg/kg, Nintedanib 60 mg/kg): 92%
Survival (number of animals surviving to study day) ([1]; Day 11): 12
Survival (number of animals surviving to study day) ([1]; Day 12): 12
Survival (number of animals surviving to study day) ([1]; Day 13): 12
Survival (number of animals surviving to study day) ([1]; Day 14): 12
Survival (number of animals surviving to study day) ([1]; Day 15): 12
Survival (number of animals surviving to study day) ([1]; Day 16): 12
Survival (number of animals surviving to study day) ([1]; Day 17): 12
Survival (number of animals surviving to study day) ([1]; Day 18): 12
Survival (number of animals surviving to study day) ([1]; Day 19): 12
Survival (number of animals surviving to study day) ([1]; Day 20): 12
Survival (number of animals surviving to study day) ([1]; Day 21): 11
Body weight, of initial body weights [2]: around 90%
Live cells counted in BAL fluid at termination [3]: did not significantly affect
Group mean histological (Ashcroft) score, significance vs respective vehicle ([4]; left lung lobe, Day 21, dexamethasone/Nintedanib PO, Test Article = HisRS1^N8 IV): did not result in a significant decrease
Overall effects in this experiment ([4]; Nintedanib 60 mg/kg/dose from day of BLM instillation): no significant effects
BLM-induced alterations in respiratory parameters ([5]; BLM-induced rats, Day 15, Nintedanib 60 mg/kg PO, Test Article = HRS^FC1 IV weekly): did not significantly impact
Respiratory minute volume (RMV) ([5]; BLM-induced rats, Day 15, Nintedanib PO, Test Article = HRS^FC1 0.1-3 mg/kg from Day 9 or Day 2, FIG. 3): no impact on RMV
Expiratory Time ([5]; Day 8): 0.12 s
Inspiratory Time ([5]; Day 8): 0.09 s
Peak Expiratory Flow ([5]; Day 8): 28.4
Peak Inspiratory Flow ([5]; Day 8): 26.7
Tidal Volume ([5]; Day 8): 1.5 mL
Respiratory Rate ([5]; Day 8): 313.0
Respiratory Minute Volume ([5]; Day 8): 477.5
Expiratory Time ([5]; Day 15): 0.12 s
Inspiratory Time ([5]; Day 15): 0.09 s
Peak Expiratory Flow ([5]; Day 15): 28.8
Peak Inspiratory Flow ([5]; Day 15): 29.0
Tidal Volume ([5]; Day 15): 1.6 mL
Respiratory Rate ([5]; Day 15): 317.3
Respiratory Minute Volume ([5]; Day 15): 534.6
Interstitial/alveolar inflammatory cell infiltrate score [6]: no effect on interstitial inflammatory cell infiltrate
Interstitial inflammatory cell infiltrate (as printed in the Ashcroft score paragraph) [7]: no significant effect
Interstitial inflammatory cell infiltrate [8]: no significant effect
